Consider ten molecules from US6403626B1, “Benzimidazole derivatives” (Synaptic Pharmaceutical Corporation, priority 1994, dated 2002).

Like-named read-outs stand apart in the source and are kept apart here.

Assay [1] deals with T1, α2B Human Adrenergic Receptor (Homo sapiens, UniProt P18089).
T1 construct: expressed in transfected cells; host or cells: Y-1 cells
T1 sequence (P18089 1-450): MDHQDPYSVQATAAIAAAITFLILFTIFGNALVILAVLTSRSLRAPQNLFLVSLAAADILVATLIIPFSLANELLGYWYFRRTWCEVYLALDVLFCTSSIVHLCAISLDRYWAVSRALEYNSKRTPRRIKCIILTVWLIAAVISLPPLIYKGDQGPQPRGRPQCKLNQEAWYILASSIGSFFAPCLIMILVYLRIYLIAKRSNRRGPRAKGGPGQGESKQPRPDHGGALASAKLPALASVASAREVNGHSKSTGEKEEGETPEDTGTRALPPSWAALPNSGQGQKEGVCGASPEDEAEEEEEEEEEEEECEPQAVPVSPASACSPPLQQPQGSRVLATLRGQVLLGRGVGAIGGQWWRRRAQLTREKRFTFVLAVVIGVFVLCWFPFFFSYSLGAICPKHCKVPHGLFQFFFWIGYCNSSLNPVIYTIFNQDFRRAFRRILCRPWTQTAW
The assay can be described thus: Equilibrium competition binding, [3H] rauwolscine, membranes of transfected Y-1 cells. As for the experimental part: (§1) Binding and functional assays were performed using stably transfected human alpha adrenergic receptors. Equilibrium competition binding assays were performed with membrane preparations from cultured LM(tk-) cells stably transfected with the cloned human adrenoceptor subtypes except for α2b, which was expressed in Y-1 cells, using [^3H] prazosin for α1 receptors and [^3H] rauwolscine for α2 receptors.
(§2) Stable cell lines were selected as described above.
Transfected cells from culture flasks were scraped into 5 ml of 5 mM Tris-HCl, 5 mM EDTA, pH 7.5, and lysed by sonication. The cell lysates were centrifuged at 1000 rpm for 5 min at 4° C., and the supernatant was centrifuged at 30,000×g for 20 min at 4° C. The pellet was suspended in 50 mM Tris-HCl, 1 mM MgCl2, and 0.1% ascorbic acid at pH 7.5. Binding of α2 antagonist [^3H] rauwolscine ([…]) to membrane preparations of LM(tk-) cells was done in a final volume of 0.25 ml and incubated at 37° C. for 20 min. Nonspecific binding was determined in the presence of 10 μM phentolamine. The reaction was stopped by filtration through GF/B filters using a cell harvester.

Assay [2] addresses T2, α2C Human Adrenergic Receptor (Homo sapiens, UniProt P18825).
T2 sequence (P18825 1-462): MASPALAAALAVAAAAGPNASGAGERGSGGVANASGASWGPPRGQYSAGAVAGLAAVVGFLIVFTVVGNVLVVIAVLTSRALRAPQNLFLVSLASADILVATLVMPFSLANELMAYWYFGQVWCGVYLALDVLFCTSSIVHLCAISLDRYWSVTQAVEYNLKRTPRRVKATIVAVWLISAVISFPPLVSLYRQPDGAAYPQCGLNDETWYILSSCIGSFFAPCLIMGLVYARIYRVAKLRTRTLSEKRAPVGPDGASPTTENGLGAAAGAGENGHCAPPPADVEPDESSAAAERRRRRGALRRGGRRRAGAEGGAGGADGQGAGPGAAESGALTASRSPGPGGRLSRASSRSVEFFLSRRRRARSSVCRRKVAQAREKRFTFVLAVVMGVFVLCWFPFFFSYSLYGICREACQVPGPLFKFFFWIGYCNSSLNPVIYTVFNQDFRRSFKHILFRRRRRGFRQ
Nature of the assay: Equilibrium competition binding, [3H] rauwolscine, membranes of transfected LM(tk-) cells.

Assay [3] concerns the target T2, α2C Human Adrenergic Receptor. The class given is cell-based. The settings on record: for I.A Alpha-2 C: functional cAMP assay. The arrangement: The entire coding region of α2C (1383 bp), including 2 bp of 5′ UT and 400 bp of 3′ UT; expressed in transfected cells; host or cells: LM(tk-) cells. As to the method: as §1
The insert housing this coding region was an @ 1.8 kb Ncol/EcoRI human spleen genomic fragment which was end-blunted by either T4 polymerase or Klenow fragment of DNA polymerase. Stable cell lines were selected as described above.
(§3) The agonist activity (expressed as pEC50) was measured as a function of the ability to inhibit the forskolin-stimulated synthesis of cyclic adenosine monophosphate (cAMP). The stably transfected cells were incubated in Ham's F10 with 5 mM theophylline, 10 mM HEPES, 10 μM pargyline, and/or appropriate concentrations of forskolin for 20 min at 37° C. in 5% CO2. The tested compounds were then added to a final concentration of 0.001 nM to 1 μM and incubated for an additional 15 min at 37° C. in 5% CO2. The medium was aspirated and the reaction was stopped by the addition of 100 mM HCl . […] The plates are stored at 4° C. for 15 min and assayed to determine the linear concentration of cAMP. The appropriate dilution is interpolated from the standard curve of cold cAMP. The assessment of cAMP formation is determined by radioimmunoassay (cAMP radioimmunoassay kit; Advanced Magnetics, Cambridge, Mass.). Radioactivity was quantified using a Packard COBRA Auto Gamma counter, equipped with data reduction software.
In general terms: Cyclic AMP is a second messenger, typically raised through Gs and lowered through Gi signalling.

For assay [4], the target named is T1, α2B Human Adrenergic Receptor. The class given is cell-based. As for the experimental part: as §1, §2, §3
Where [5] appears, read: inhibition of forskolin-stimulated cAMP, NA: Not Active, read-out: pEC50 Alpha-2 C (converted).
Setting [6] is: cloned human receptor, [3H] rauwolscine, read-out: pKi Alpha-2 B (converted).

As to `CCc1cc(NC2=NCCN2)cc2[nH]cnc12` [Example 55, 7-Ethyl-5-(2-imidazolin-2-ylamino)Benzimidazole], the Ki is 209 nM in assay [1] and 427 nM in assay [2]. In assay [3], the “I.A Alpha-2 C” value amounted to 0.80. In assay [3] (setting [5]), the EC50 was 162 nM.

On to `Brc1c(NC2=NCCN2)ccc2c1ncn2CC1CCCCC1` [Example 30, 1-Cyclohexylmethyl-4-bromo-5-(2-imidazolin-2-ylamino)Benzimidazole], for which the values for the Ki in assay [1] (setting [6]) and in assay [2] were 166 nM and 309 nM, respectively.

For the molecule `CC(C)n1cnc2c(I)c(NC3=NCCN3)ccc21` [Example 19, 1-lsopropyl-4-Iodo-5-(2-imidazolin-2-ylamino)Benzimidazole], the Ki in assay [1] (setting [6]) is 214 nM; in assay [2], 129 nM.

With `c1ccc(-c2cc(NC3=NCCN3)cc3[nH]cnc23)cc1` [Example 57, 7-Phenyl-5-(2-imidazolin-2-ylamino)Benzimidazole], the Ki in assay [1] (setting [6]) is 60.3 nM; in assay [2], 135 nM. Besides, the “I.A Alpha-2 B” value in assay [4] (functional cAMP assay) is recorded as 1.00. The EC50 is 8510 nM in assay [4] (inhibition of forskolin-stimulated cAMP, NA: Not Active, read-out: pEC50 Alpha-2 B (converted)) and 15.1 nM in assay [3] (setting [5]).

`CCc1c(NC2=NCCN2)ccc2nc[nH]c12` [Example 6, 4-Ethyl-5-(2-imidazolin-2-ylamino)Benzimidazole] had a Ki in assay [1] of 22.4 nM. Also, in assay [4], the EC50 is 22.4 nM and the “I.A Alpha-2 B” value is 1.00. Also, the Ki in assay [2] was 47.9 nM. Besides, in assay [3], the EC50 was 3.98 nM and the “I.A Alpha-2 C” value came out at 1.00.

Take `Brc1c(NC2=NCCN2)ccc2nc(C3CC3)[nH]c12` [Example 47, 2-Cyclopropyl-4-bromo-5-(2-imidazolin-2-ylamino)Benzimidazole]: the Ki in assay [1] was 44.7 nM; in assay [2], 224 nM. In addition, the EC50 is 115 nM in assay [4] and 45.7 nM in assay [3].

As to `COc1cccc(Cn2cnc3c(Br)c(NC4=NCCN4)ccc32)c1` [Example 37, 1-(3-Methoxybenzyl)-4-bromo-5-(2-imidazolin-2-ylamino)Benzimidazole], the Ki in assay [1] (setting [6]) was 81.3 nM; in assay [2], 117 nM. Moreover, in assay [3], the “I.A Alpha-2 C” value is 0.50. In addition, the EC50 in assay [3] (setting [5]) is 52.5 nM.

`Cc1cc(NC2=NCCN2)cc2[nH]cnc12` [Example 52, 7-Methyl-5-(2-imidazolin-2-ylamino)Benzimidazole] gave a Ki in assay [1] of 77.6 nM. Besides, in assay [4], the EC50 was 72.4 nM and the “I.A Alpha-2 B” value came out at 0.80. Further, in assay [3], the “I.A Alpha-2 C” value came to 1.00.

For `Cc1cc2nc[nH]c2cc1NC1=NCCN1` [Example 49, 6-Methyl-5-(2-imidazolin-2-ylamino)Benzimidazole], the Ki in assay [1] is 36.3 nM. Further, the “I.A Alpha-2 C” value in assay [3] stood at 1.00.

Turning to `Brc1cc(NC2=NCCN2)cc2[nH]cnc12` [Example 51, 7-Bromo-5-(2-imidazolin-2-ylamino)Benzimidazole], the values for the Ki in assay [1] and in assay [2] were 27.5 nM and 123 nM, respectively. The values for the EC50 in assay [4] and in assay [3] were 89.1 nM and 4.27 nM, respectively. For the same molecule, in assay [4], the “I.A Alpha-2 B” value was 0.60. For the same molecule, in assay [3], the “I.A Alpha-2 C” value was 1.00.
